Source: article PMC6774960, “Design, synthesis and biological evaluation of a series of new resveratrol analogues as potential anti-cancer agents” (Royal Society Open Science, 2019)

What was measured:
HeLa cells = assay: MTT anti-proliferation assay, HeLa; format: cell-based, human; details: Homo sapiens, HeLa, 24 h, average of three determinations
Method: (§1) The 22 synthesized resveratrol compounds were evaluated for anti-proliferative activities against three human cancer cell lines, including HepG2, A549 and HeLa cells, using 3-[4,5-dimethylthiazol-2-yl]-2,5 diphenyl tetrazolium bromide (MTT) assays. Paclitaxel, a well-known tubulin inhibitor, was used as a positive control.
(§2) The anti-proliferative and cytotoxicity activity was determined using MTT assay. Human cervical carcinoma HeLa cells, human hepatocellular carcinoma HepG2 cells, human lung carcinoma A549 cells were representative in the anti-proliferation assay, which were obtained from the Shanghai Institute of Cell Biology (Shanghai, China). Normal African green monkey kidney Vero cells were a gift from Dr Xiumiao He at Guangxi University for Nationalities. Normal human hepatocytes LO2 cells were a gift from Dr Xing Lin at Guangxi Medical University. The HepG2, Hela, LO2 and Vero cells were cultured in Dulbecco's modified Eagle's medium (DMEM, Gibco) and the A549 cells were cultured in RPMI1640 (Gibco), both media were supplemented with 10% fetal calf serum and antibiotics (100 IU ml^−1 penicillin, 100 IU ml^−1 streptomycin; Amresco).
After 24 h, cell morphology was observed using a light microscope, and then 20 µl of MTT solution (5 mg ml^−1) was added to the well and incubated for 4 h, then cell survival was determined by measuring the optical density (OD) absorbance at a wavelength of 570 nm using an ELISA microplate reader. […] Cisplatin and paclitaxel were used as positive control drugs.

HepG2 cells = assay: MTT anti-proliferation assay, HepG2; format: cell-based, human; details: Homo sapiens, HepG2, 24 h, average of three determinations
Method: as §1, with “control. […] Therefore, the inhibitory activity of the compounds depended not only on the 2-position substitution of acrylic acid, but also on the 3-position substitution of acrylic acid.” for “control.”
as §2
(§3) Cells were seeded in 96-well microtiter plates at a density of 1 × 10^4 cells well^−1 and incubated with different concentrations of compound (6.25, 12.50, 25.00, 50.00 to 100.00 µM), cisplatin and paclitaxel in RPMI-1640 or DMEM at 37°C with 5% CO2. After 24 h, cell morphology was observed using a light microscope, and then 20 µl of MTT solution (5 mg ml^−1) was added to the well and incubated for 4 h, then cell survival was determined by measuring the optical density (OD) absorbance at a wavelength of 570 nm using an ELISA microplate reader. The inhibition rate (IR) following each compound treatment was determined by the following equation: IR (%) = (1 − ODexp/ODcon) × 100%, where ODexp and ODcon are the OD of the treated and untreated cells, respectively. Cisplatin and paclitaxel were used as positive control drugs.

[1] = MTT cytotoxicity test, LO2; format: cell-based, human; details: human, LO2 cells (normal human hepatocytes), average of three determinations
Method: (§4) Vero cells are non-tumorigenic cell lines and are important raw materials as the research and production of biological products. Vero cells show low tumorigenicity and had been approved for use in the production of human virus vaccines. Thus, Vero cells were chosen as a control for cytotoxicity. All compounds were evaluated for their cell toxicity against Vero and normal human hepatocytes cells line (LO2) using MTT assays.
as §2, §3

A549 cells = assay: MTT anti-proliferation assay, A549; format: cell-based, human; details: Homo sapiens, A549, 24 h, average of three determinations
Method: as §1, with “control. […] Therefore, the inhibitory activity of the compounds depended not only on the 2-position substitution of acrylic acid, but also on the 3-position substitution of acrylic acid.” for “control.”
as §2, §3

[2] = MTT cytotoxicity test, Vero; format: cell-based, African green monkey; details: African green monkey, Vero cells (normal African green monkey kidney), average of three determinations
Method: as §4, §2, §3

Row | Structure (SMILES) | IC50 (HeLa cells) [µM] | IC50 (HepG2 cells) [µM] | melting point [°C] | IC50 (A549 cells) [µM] | CC50 at 24 h [1] [µM] | CC50 at 24 h [2] [µM]
1 | COc1cc(C(=Cc2cccc(C(F)(F)F)c2)C(=O)O)cc(OC)c1OC [compound h, 3-(3-(trifluoromethyl)phenyl)-2-(3,4,5-trimethoxyphenyl) acrylic acid] | 26 ± 4 | 47 ± 4 | 162 to 164 | 32 ± 5 | 75 ± 4 | > 100
2 | COc1cc(C(=Cc2ccccc2OC(F)(F)F)C(=O)O)cc(OC)c1OC [compound e, 3-(2-(trifluoromethoxy)phenyl)-2-(3,4,5-trimethoxyphenyl) acrylic acid] | 61 ± 3 | > 100 | 164 | > 100 | > 100 | 82 ± 2
3 | COc1cc(C(=Cc2c(Cl)ccc(Cl)c2Cl)C(=O)O)cc(OC)c1OC [compound n, 3-(2,3,6-trichlorophenyl)-2-(3,4,5-trimethoxyphenyl) acrylic acid] | 20 ± 2 | 79 ± 4 | 203 to 204 | 27.2 ± 0.9 | 77 ± 1 | 63 ± 2
4 | COc1cc(C(=Cc2cc(Cl)ccc2[N+](=O)[O-])C(=O)O)cc(OC)c1OC [compound m, 3-(5-chloro-2-nitrophenyl)-2-(3,4,5-trimethoxyphenyl) acrylic acid] | 60 ± 1 | > 100 | 167 to 169 | 34 ± 2 | > 100 | > 100
5 | COc1cc(C(=Cc2c(Cl)cccc2Cl)C(=O)O)cc(OC)c1OC [compound b, 3-(2,6-dichlorophenyl)-2-(3,4,5-trimethoxyphenyl) acrylic acid] | 32 ± 3 | 74 ± 4 | 217 to 218 | 46 ± 3 | 92 ± 2 | > 100
6 | COc1cc(C(=Cc2ccc(OC)c(OC)c2Cl)C(=O)O)cc(OC)c1OC [compound l, 3-(2-chloro-3,4-dimethoxyphenyl)-2-(3,4,5-trimethoxyphenyl) acrylic acid] | 89 ± 4 | > 100 | 171 to 173 | > 100 | 64 ± 2 | > 100
7 | COc1cc(C(=Cc2ccccc2C(F)(F)F)C(=O)O)cc(OC)c1OC [compound i, 3-(2-(trifluoromethyl)phenyl)-2-(3,4,5-trimethoxyphenyl) acrylic acid] | 41 ± 4 | 42 ± 2 | 160 to 162 | 32 ± 2 | > 100 | > 100
8 | CC(=O)O[C@H]1C(=O)[C@@]2(C)[C@H]([C@H](OC(=O)c3ccccc3)[C@]3(O)C[C@H](OC(=O)[C@H](O)[C@@H](NC(=O)c4ccccc4)c4ccccc4)C(C)=C1C3(C)C)[C@]1(OC(C)=O)CO[C@@H]1C[C@@H]2O [paclitaxel, reference compound] | 0.7 ± 0.1 | 0.39 ± 0.03 | – | 0.17 ± 0.03 | > 100 | 98 ± 1
9 | COc1cc(C(=Cc2cc(C(F)(F)F)ccc2Cl)C(=O)O)cc(OC)c1OC [compound k, 3-(2-chloro-5-(trifluoromethyl)phenyl)-2-(3,4,5-trimethoxyphenyl) acrylic acid] | > 100 | 100 ± 0.8 | 258 | > 100 | 88 ± 2 | 71 ± 2
10 | COc1cc(C(=Cc2cc([N+](=O)[O-])ccc2Cl)C(=O)O)cc(OC)c1OC [compound d, 3-(2-chloro-5-nitrophenyl)-2-(3,4,5-trimethoxyphenyl) acrylic acid] | 62 ± 3 | > 100 | 247 to 248 | > 100 | 93 ± 2 | > 100
11 | COc1cc(C(=Cc2ccc(Cl)cc2Cl)C(=O)O)cc(OC)c1OC [compound c, 3-(2,4-dichlorophenyl)-2-(3,4,5-trimethoxyphenyl) acrylic acid] | 46 ± 3 | 30 ± 3 | 228 | 30 ± 1 | > 100 | 71 ± 2
12 | COc1cc(C(=Cc2ccc(Cl)c(Cl)c2)C(=O)O)cc(OC)c1OC [compound a, 3-(3,4-dichlorophenyl)-2-(3,4,5-trimethoxyphenyl) acrylic acid] | 27 ± 2 | 50 ± 4 | 233 to 235 | 34 ± 2 | 27 ± 1 | 28.2 ± 0.5

The next lines start with results.

Row | IC50 (HeLa cells) [µM] | IC50 (HepG2 cells) [µM] | melting point [°C] | IC50 (A549 cells) [µM] | Structure (SMILES) | CC50 at 24 h [1] [µM] | CC50 at 24 h [2] [µM]
13 | > 100 | > 100 | 174 | > 100 | COc1ccc(C(=Cc2c(Cl)ccc(Cl)c2Cl)C(=O)O)cc1 [compound u, 2-(4-methoxyphenyl)-3-(2,3,6-trichlorophenyl) acrylic acid] | 35 ± 1 | 38.6 ± 0.7
14 | 20 ± 3 | 18.7 ± 0.9 | 208 | 19 ± 2 | COc1cc(C(=Cc2ccc(OC(F)(F)F)cc2)C(=O)O)cc(OC)c1OC [compound f, 3-(4-(trifluoromethoxy)phenyl)-2-(3,4,5-trimethoxyphenyl) acrylic acid] | > 100 | > 100
15 | 10 ± 2 | 48 ± 5 | 319 to 320 | 21.3 ± 0.7 | COc1ccc(C(=Cc2c(Cl)cccc2Cl)C(=O)O)cc1 [compound o, 3-(2,6-dichlorophenyl)-2-(4-methoxyphenyl) acrylic acid] | > 100 | > 100
16 | 73 ± 5 | 24 ± 2 | 156 to 157 | 14 ± 4 | COc1cc(C(=Cc2cccc(OC(F)(F)F)c2)C(=O)O)cc(OC)c1OC [compound g, 3-(3-(trifluoromethoxy)phenyl)-2-(3,4,5-trimethoxyphenyl) acrylic acid] | > 100 | > 100
17 | 24 ± 2 | 93 ± 3 | 202 | > 100 | COc1ccc(C(=Cc2ccc(OC)c(OC)c2Cl)C(=O)O)cc1 [compound t, 3-(2-chloro-3,4-dimethoxyphenyl)-2-(4-methoxyphenyl) acrylic acid] | 87 ± 2 | 85 ± 1
18 | 5.1 ± 0.8 | 7.7 ± 0.3 | 159 to 160 | 14 ± 2 | COc1ccc(C(=Cc2ccc(OC(F)(F)F)cc2)C(=O)O)cc1 [compound p, 2-(4-methoxyphenyl)-3-(4-(trifluoromethoxy)phenyl) acrylic acid] | 84 ± 2 | 93 ± 3
19 | 19 ± 2 | 56.66 ± 0.02 | 259 | 18 ± 3 | COc1cc(C(=Cc2ccc(C(F)(F)F)cc2)C(=O)O)cc(OC)c1OC [compound j, 3-(4-(trifluoromethyl)phenyl)-2-(3,4,5-trimethoxyphenyl) acrylic acid] | > 100 | > 100
20 | 14 ± 1 | 19 ± 2 | 192 to 194 | 16 ± 3 | COc1ccc(C(=Cc2cccc(C(F)(F)F)c2)C(=O)O)cc1 [compound q, 2-(4-methoxyphenyl)-3-(3-(trifluoromethyl)phenyl) acrylic acid] | 98 ± 2 | > 100
21 | 51.25 ± 0.01 | 100 ± 1 | 198 to 200 | 61 ± 3 | COc1ccc(C=C(C(=O)O)c2cc(C)cc(C)c2)cc1 [compound v, 2-(3,5-dimethylphenyl)-3-(4-methoxyphenyl) acrylic acid] | 96 ± 6 | > 100
